Measured values: patent US20150232457A1, “CRYSTALLINE FORMS OF AFATINIB DI-MALEATE” (RATIOPHARM GMBH, priority 2011, published 2015)
“And” between values parts separate entries of the source, which are not always exact repeats. Equal values may be shown once. Read-outs that look alike come from different tables or passages of the source.

What was measured:
[1] = Chemical stability at 30° C./65% relative humidity for 4 weeks (HPLC); assay type: physicochemical; conditions: stable means purity change less than about 1% by HPLC, solid state form maintained
[2] = Stability and hygroscopicity at 40° C./75% relative humidity; assay type: physicochemical
Source text: The term “non-hygroscopic” as used herein, and unless stated otherwise, refers to crystalline Afatinib di-maleate uptaking/absorbing less than 0.2% (w/w) of atmospheric water to the crystalline Afatinib di-maleate in the below specified conditions, as measured by Karl-Fischer (KF) titration or by monitoring the weight increase during dynamic vapour sorption (DVS) test.

[3] = Investigation of hygroscopicity (dynamic vapour sorption) with Karl-Fischer titration of the product; assay type: physicochemical
Protocol: Karl-Fischer titration was carried out using […] from Merck (HX908240). The instructions of the manual were followed and each sample was analyzed in triplicate. […] Investigation of Hygroscopicity (Dynamic Vapour Sorption (DVS)) Instrument: SPSx-1μ, (Projekt Messtechnik) Temperature: 25° C. Humidity cycles: [table] […] Then the sample was analyzed by XRD diffraction.

[4] = crystalline form of US 2005/0085495 (WO2005/037824); cited from earlier work

## CN(C)C/C=C/C(=O)Nc1cc2c(Nc3ccc(F)c(Cl)c3)ncnc2cc1O[C@H]1CCOC1 [Form C, (E)-4-Dimethylamino-but-2-enoic acid {4-(3-chloro-4-fluoro-phenylamino)-7-[(S)-(tetrahydro-furan-3-yl)oxy]-quinazolin-6-yl}-amide]
[1]
  chemical stability: chemically stable

## CN(C)C/C=C/C(=O)Nc1cc2c(Nc3ccc(F)c(Cl)c3)ncnc2cc1O[C@H]1CCOC1 [Form E, (E)-4-Dimethylamino-but-2-enoic acid {4-(3-chloro-4-fluoro-phenylamino)-7-[(S)-(tetrahydro-furan-3-yl)oxy]-quinazolin-6-yl}-amide]
[2]
  hygroscopicity: not hygroscopic
[2]; stable means less than 1% converts to any other solid state form
  polymorphic stability: polymorphically stable
[3]; Karl-Fischer titration, average of triplicate, after DVS of Form A at 25° C.
  water content (% by weight), average: 7.00 % by weight
[3]; Karl-Fischer titration, single determinations of a triplicate, after DVS humidity cycles of Form A at 25° C., 0-95% relative humidity, listed as Afatinib di-maleate after DVS of Form A
  water content (% by weight): 6.95 % by weight and 7.15 % by weight and 6.90 % by weight
[3]; obtained product analysed by 1H-NMR and HPLC
  decomposition after DVS: no decomposition

## CN(C)C/C=C/C(=O)Nc1cc2c(Nc3ccc(F)c(Cl)c3)ncnc2cc1O[C@H]1CCOC1 [Afatinib di-maleate, (E)-4-Dimethylamino-but-2-enoic acid {4-(3-chloro-4-fluoro-phenylamino)-7-[(S)-(tetrahydro-furan-3-yl)oxy]-quinazolin-6-yl}-amide]
[4]
  hygroscopicity: limited hygroscopisity
  polymorphic stability: polymorphically stable
